Common to all, as to assay type: physicochemical
Data set [1] is described as follows: Stability test of amorphous form and crystalline forms I-IV, 40° C./75% RH, airtight container. How it is done: Crystalline form III of Example 7a were dissolved in water and subjected to lyophilisation to afford (2S,5R)-N-(2-aminoethoxy)-7-oxo-6-(sulfooxy)-1,6-diazabicyclo[3.2.1]octane-2-carboxamide (VII-1) in an amorphous form. The compounds in an amorphous form and crystalline forms I-IV of Examples 5-8 were each weighed in a screw bottle, and stability tests were conducted at each of the temperatures and humidity conditions. The methods of measurement of related substances, content measurement, and water content measurement were as follows.
Samples were dissolved in water, and these solutions were used as sample solutions. The sample solutions each in the amount of 5 μL were tested under the following conditions by JP16, Liquid Chromatography <2.01>to obtain the amount of each related substance (%) and the total amount of related substances (%), and the content.
• Column: Waters Atlantis dc18, 5 μm, 4.6×250 mm • Column temperature: a constant temperature of about 35° C. • Injected amount: 5 μL • Detector: an ultraviolet absorption photometer (wavelength: 210 nm) • Mobile phase A: 1.32 g of diammonium hydrogenphosphate was dissolved in 900 mL of water, and phosphoric acid was added to adjust the pH to 3.0. To this was then added water to make 1000 mL. • Mobile phase B: Acetonitrile for liquid chromatography • Gradient program: The mixing ratio of mobile phase A to mobile phase B was controlled as the following time program.
About 20 mg of the product was precisely measured and tested by JP16, Water Determination <2.48>Coulometric titration.

The nature of data set [2]: Experiment on crystal transformation (powder X-ray diffraction after stirring suspension or storage). How it is done: Crystal transformation in the polymorphism of the compound represented by Formula (VII-1) obtained in the present invention are not observed in a stability test carried out at 40° C. in the solid state or in stirring the suspension in a hydrous solvent for a long time. When crystalline form III of the compound represented by Formula (VII-1) was subjected to an XRD-DSC experiment, heated to 160° C. at 60% RH, and then allowed to cool on standing to 63° C., the crystalline form changed to anhydrous crystalline form over about 145° C., and then returned to the crystalline form III below about 90° C. after cooling. On the basis of these findings, a crystalline form of a compound represented by Formula (VII-1), particularly the crystalline form III constitutes a stable form under ordinary conditions.
A small amount of a suspension of the crystals of Example 6a was taken and stirred at room temperature for one day. The precipitated crystals were collected and subjected to powder X-ray crystal diffraction.
In the step of Example 7a, a small amount was taken out of the suspension immediately after the seeding and of the suspension after the dropwise addition of isopropanol, and each of the taken-out portions was stirred with a stirring bar at room temperature for one day and four days. The precipitated crystals were collected and subjected to powder X-ray crystals diffraction.
Crystalline form IV of Examples 8a-c was taken and isopropanol/water (6/1) was added thereto and suspended and stirred at 25° C. or 40° C. for one week. Samples were taken after 12 hours, 24 hours (one day), 48 hours (two days), 72 hours (three days), 96 hours (four days) and 168 hours (one week), and subjected to powder X-ray crystal diffraction after through-flow drying.

Data set [3] is described as follows: Solubility in aqueous isopropanol solution. The source says: Crystalline forms I, II and III are distinguished by DSC, solubility in aqueous isopropanol, and lattice spacing in powder X-ray diffraction patterns. […]

`NCCONC(=O)[C@@H]1CC[C@@H]2CN1C(=O)N2OS(=O)(=O)O` [Crystalline form IV, (2S,5R)-N-(2-aminoethoxy)-7-oxo-6-(sulfooxy)-1,6-diazabicyclo[3.2.1]octane-2-carboxamide]: the Content is recorded as 99.8% in data set [1] (1 month); 99.8% in data set [1] (1 month, listed as Form IV); 99.9% in data set [1] (at start); 99.9% in data set [1] (at start, listed as Form IV). Also, the “Total amount of related substances” value in data set [1] (1 month) was 0.0%; in data set [1] (1 month, listed as Form IV), 0.0%; in data set [1] (at start), 0.0%; in data set [1] (at start, listed as Form IV) it was 0.0%. For the same molecule, the Water content in data set [1] (1 month) is reported as 0.1%; in data set [1] (1 month, listed as Form IV) it was 0.1%; in data set [1] (at start), 0.1%; in data set [1] (at start, listed as Form IV), 0.1%. Besides, the “Crystal transformation to a different crystal form” value in data set [2] (suspended in isopropanol/water (6/1), stirred at 25° C. or 40° C., 12 hours to one week) is recorded as “No crystal transformation to a different crystal form was observed”.

For `NCCONC(=O)[C@@H]1CC[C@@H]2CN1C(=O)N2OS(=O)(=O)O` [Crystalline form I, (2S,5R)-N-(2-aminoethoxy)-7-oxo-6-(sulfooxy)-1,6-diazabicyclo[3.2.1]octane-2-carboxamide], the Content stood at 99.9% in data set [1] (1 month); 99.9% in data set [1] (1 month, listed as Form I); 99.8% in data set [1] (3 months); 99.8% in data set [1] (3 months, listed as Form I); 99.9% in data set [1] (at start); 99.9% in data set [1] (at start, listed as Form I). In addition, the “Total amount of related substances” value is on record as 0.0% in data set [1] (1 month); 0.0% in data set [1] (1 month, listed as Form I); 0.1% in data set [1] (3 months); 0.1% in data set [1] (3 months, listed as Form I); 0.1% in data set [1] (at start); 0.1% in data set [1] (at start, listed as Form I). Moreover, the Water content was determined as 5.4% in data set [1] (1 month); 5.4% in data set [1] (1 month, listed as Form I); 5.6% in data set [1] (3 months); 5.6% in data set [1] (3 months, listed as Form I); 5.4% in data set [1] (at start); 5.4% in data set [1] (at start, listed as Form I). For the same molecule, in data set [3], the “Solubility in aqueous isopropanol, comparison of crystalline forms I, II and III” value is recorded as “lowest solubility”. The “Solubility in an aqueous 60% isopropanol solution” value worked out at 0.44% in data set [3] (10° C.) and 0.48% in data set [3] (20° C.).

With `NCCONC(=O)[C@@H]1CC[C@@H]2CN1C(=O)N2OS(=O)(=O)O` [Amorphous form, (2S,5R)-N-(2-aminoethoxy)-7-oxo-6-(sulfooxy)-1,6-diazabicyclo[3.2.1]octane-2-carboxamide], in data set [1] (1 month), the Content worked out at 93.3%, the “Total amount of related substances” value is 6.6% and the Water content was determined as 3.3%. In addition, in data set [1] (3 months), the Content is 87.5%, the “Total amount of related substances” value was 12.3% and the Water content is reported as 3.8%. Moreover, in data set [1] (at start), the Content was found to be 99.4%, the “Total amount of related substances” value stood at 0.5% and the Water content was 1.3%.

Take `NCCONC(=O)[C@@H]1CC[C@@H]2CN1C(=O)N2OS(=O)(=O)O` [Crystalline form II, (2S,5R)-N-(2-aminoethoxy)-7-oxo-6-(sulfooxy)-1,6-diazabicyclo[3.2.1]octane-2-carboxamide]: the Content in data set [1] (1 month) is given as 99.8%; in data set [1] (1 month, listed as Form II), 99.8%; in data set [1] (3 months), 99.3%; in data set [1] (3 months, listed as Form II), 99.3%; in data set [1] (at start) it was 99.8%; in data set [1] (at start, listed as Form II), 99.8%. Moreover, the “Total amount of related substances” value in data set [1] (1 month) was 0.0%; in data set [1] (1 month, listed as Form II), 0.0%; in data set [1] (3 months), 0.5%; in data set [1] (3 months, listed as Form II), 0.5%; in data set [1] (at start) it was 0.1%; in data set [1] (at start, listed as Form II), 0.1%. Moreover, the Water content in data set [1] (1 month) amounted to 5.6%; in data set [1] (1 month, listed as Form II) it was 5.6%; in data set [1] (3 months) it was 5.9%; in data set [1] (3 months, listed as Form II), 5.9%; in data set [1] (at start) it was 5.7%; in data set [1] (at start, listed as Form II) it was 5.7%. For the same molecule, the results for the “Solubility in an aqueous 60% isopropanol solution” value in data set [3] (10° C.) and in data set [3] (20° C.) were 0.67% and 0.74%, respectively. Besides, the “Crystal transformation to a different crystal form” value in data set [2] (suspension of the crystals stirred at room temperature for one day, powder X-ray diffraction) is recorded as “No crystal transformation to a different crystal form was observed”.

The record behind these values is patent US20250059191A1, “CRYSTALLINE FORMS OF DIAZABICYCLOOCTANE DERIVATIVE AND PRODUCTION PROCESS THEREOF” (MEIJI SEIKA PHARMA CO., LTD., priority 2013, published 2025).
